Measurements: the NIST ThermoML archive (doi:10.1021/je200030k)
Numbers after ± are expanded uncertainties.

How the values were obtained:
[1] = refractive index (Na D-line) (dimensionless); details: 101.33 kPa, Liquid, Standard Abbe refractometry
[2] = 101.33 kPa, Liquid, Vibrating tube method

refractive index ([1]; 298.15 K)	refractive index ([1]; 303.15 K)	refractive index ([1]; 308.15 K)	refractive index ([1]; 313.15 K)	mass density ([2]; 298.15 K) [kg/m3]	mass density ([2]; 303.15 K) [kg/m3]	mass density ([2]; 308.15 K) [kg/m3]	mass density ([2]; 313.15 K) [kg/m3]	SMILES
1.52 ± 0.002	1.519 ± 0.002	1.517 ± 0.002	1.517 ± 0.002	1260.26 ± 1.1	1257.2 ± 1.1	1254.1 ± 1.1	1250.77 ± 1.1	CCCCn1cc[n+](C)c1.NCC(=O)[O-] [1-butyl-3-methylimidazolium glycinate]
1.397 ± 0.002	1.395 ± 0.002	1.393 ± 0.002	1.391 ± 0.002	806 ± 1	802.4 ± 1	798.2 ± 1	794.6 ± 1	CCCCO [butan-1-ol]
1.375 ± 0.002	1.374 ± 0.002	1.373 ± 0.002	1.372 ± 0.002	781.2 ± 1	774 ± 1	765.8 ± 1	757.2 ± 1	CC(C)O [propan-2-ol]
